# Where “and” joins values, the source holds several entries; their conditions need not be identical. Equal entries are not always repeated. Where two headings read alike, the source gives them in different places. Marks after values point to notes of the source that are not given here.
# Legend:
# [1] = molecular target: T1, 5HT4B receptors (serotonin 4B receptors) (Homo sapiens, UniProt Q13639); settings: value in brackets after the IC50; cited from earlier work
# T1 construct: expressed in transfected cells
# [2] = molecular target: T2, 5HT3A receptors (serotonin 3A receptors) (Homo sapiens, UniProt P46098); test: Competition binding assay (serotonin 3A receptors), [3H]GR65630; settings: [3H]GR65630 competition, HEK 293 membranes expressing 5HT3A
# T2 construct: expressed in transfected cells
# T2 sequence (P46098 24-478): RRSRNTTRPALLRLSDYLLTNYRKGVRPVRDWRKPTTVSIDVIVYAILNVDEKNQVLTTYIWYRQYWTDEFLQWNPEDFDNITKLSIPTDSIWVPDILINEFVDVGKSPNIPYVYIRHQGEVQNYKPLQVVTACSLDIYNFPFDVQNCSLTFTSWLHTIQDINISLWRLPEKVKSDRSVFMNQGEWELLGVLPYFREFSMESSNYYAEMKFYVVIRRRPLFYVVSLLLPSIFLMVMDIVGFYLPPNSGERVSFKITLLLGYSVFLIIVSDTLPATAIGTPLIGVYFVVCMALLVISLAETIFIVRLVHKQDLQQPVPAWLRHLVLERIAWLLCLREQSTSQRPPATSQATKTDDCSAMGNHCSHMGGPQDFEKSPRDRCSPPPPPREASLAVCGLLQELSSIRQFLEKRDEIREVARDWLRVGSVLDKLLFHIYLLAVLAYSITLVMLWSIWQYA
# Protocol: [^3H] […] To start the assay, 1 uL of compound was added into 96-well v-bottom plates, followed by the addition of 50 uL of diluted membrane preparation, then finally diluted [^3H] […] The assay mixture was incubated for 60 minutes at room temperature with shaking. Following incubation, bound [^3H] […] Filter plates were air dried for two minutes, and then 50 uL of MicroScint-20 was added into each well. Radioactivity counts were quantified using a Top Count plate reader (Perkin Elmer). Data was analyzed using one-site binding competition non-linear regression curve fitting on GraphPad Prism.
# [3] = molecular target: T3, dopamine 2S receptor (Homo sapiens, UniProt P14416); test: β-Arrestin functional assay (dopamine), antagonist mode; type: cell-based; settings: β-arrestin interaction, CHO-K1 cells expressing D2S, dopamine at EC80 (400 nM)
# T3 construct: host or cells: CHO-K1 (PathHunter eXpress β-arrestin cells)
# [4] = system: human hepatocytes; test: MetID determination in human hepatocytes; type: in vitro ADME
# Protocol: (§1) Cryopreserved human and Sprague-Dawley rat hepatocytes were thawed in a 37° C. water bath. […] Samples were obtained from separate plates for each time point during the incubation. At each sampling time, the plates were removed from the incubator, quenched by adding 100 μL cold acetonitrile, and placed in an ice bath until centrifugation at 4,000 rpm for 30 minutes at 4° C. Supernatants were stored at or below −70° C. until LC-MS/MS analysis could be conducted. The liquid chromatography system used was Agilent 1100 Autosampler, Binary Pump, DAD and Column Enclosure. Tandem mass spectrometry was conducted using a Thermo DECA XP MAX Ion Trap Mass Spectrometer. The ion source was Electrospray (+) and the LC column used was a Varian, Polaris 5 C18-A (250×2.1 mm, 5 micron) column.
# (§2) Metabolic pathways of metoclopramide and conjugates were determined in rat and human hepatocytes. N-dealkylation was the major metabolic pathway for metoclopramide in rats, and metabolism in human hepatocytes was minimal. […] FIG. 2 and FIG. 3 show the metabolic pathway of for mPEG1-N-metoclopramide and mPEG4-N-metoclopramide, respectively. […] In this figure, different metabolites for each conjugate are denoted with the “M” and correspond to the designation provided in the figure for a given conjugate. For example, metabolite M1 for mPEG1-N-metoclopramide in Table 6 corresponds to M1 in FIG. 2, metabolite M2 for mPEG4-N-metoclopramide in Table 6 corresponds to M2 in FIG. 3 and metabolite M3 mPEG8-N-metoclopramide in Table 6 corresponds to M3 in FIG. 4.
# [5] = system: Sprague-Dawley rat hepatocytes; test: MetID determination in rat hepatocytes; type: in vitro ADME
# Protocol: as §1, §2
# [6] = Chemical stability in potassium phosphate buffer; type: physicochemical; settings: 100 mM potassium phosphate buffer, pH 7.4 at 37° C. for up to 30 minutes
# Protocol: FIG. 5B is a plot of the results of a chemical stability study of test articles in a 100 mM potassium phosphate buffer, pH 7.4 at 37° C. for up to thirty minutes.
# [7] = molecular target: T2, 5HT3A receptors (serotonin 3A receptors); settings: value in brackets after the IC50; cited from earlier work
# [8] = in vivo; settings: male, Sprague Dawley, rat, plasma
# Protocol: (§3) Rat pharmacokinetic (“PK”) characterization was conducted in male Sprague Dawley Rats (Rattus Norvegicus) weighing between 210-260 gm (Charles River Laboratories (Hollister, Calif.)). Rats were fed a standard diet and water was available ad-libidum at all times. […] Animals were dosed either orally (2.5 mg/Kg) via gavage or intravenously (0.5 mg/kg) via the jugular vein cannula. Blood samples (˜0.15 mL) were collected through carotid artery cannula at respective time points and transferred immediately into K2EDTA-coated tubes (that contain quenching media-acetic acid, PMSF and Dichlorvos) and placed on ice. The samples were centrifuged within thirty minutes after collection at 10,000 RPM for five minutes and the resulting plasma was separated. Plasma were transferred into microfuge tubes and placed on dry ice immediately. The plasma samples were stored at approximately −70° C. until shipped on dry ice for Bioanalysis by LC/MS/MS. Urine samples were collected using metabolic cages into a tube containing citric acid (4 mg for 0-4 and 4-8 hr interval and 16 mg for 8-24 hr interval) on wet ice at the intervals specified in the study design. After the completion of urine collection at each interval, each cage was rinsed with 2 mL of deionized water (1 mL each time). The rinse was collected in the separate labeled container (containing 2 mg of citric acid) as the urine. Following this rinse another 2 ml rinse was carried out with ethanol (1 ml each time). The rinse was also collected in the separate labeled container as the urine. Samples were stored frozen at −70° C. until bioanalysis by LC/MS/MS was performed.
# (§4) Pharmacokinetic parameters were determined by non-compartmental analysis using Phoenix®WinNonlin® (Version 6.3; Pharsight Corp., Mountain View, Calif.). Nominal doses and sampling times were used for the analysis. Concentrations reported as BLQ were treated as missing unless they were pre-dose; then they were set to zero. Maximum plasma concentration (Cmax) and time of observed maximum plasma analyte concentration (Tmax) were generated by Phoenix®WinNonlin®, directly from the inputed dataset. […] Area under the plasma concentration-time curve from time 0 to infinity (AUCinf) was calculated as the sum of AUClast and the last observed concentration divided by k. Total plasma clearance (CL) was calculated as Dose/AUCinf. Apparent volume of distribution at steady state (Vss) was calculated as MRTinf*CL, where MRT is the mean residence time.
# [9] = molecular target: T4, dopamine 2L receptors (Homo sapiens, UniProt P14416); settings: read-out: expected IC50; expected value; cited from earlier work
# [10] = molecular target: CYP2D6 (Homo sapiens, UniProt P10635); settings: as reported in the literature; cited from earlier work
# [11] = molecular target: T4, dopamine 2L receptors; test: Competition binding assay (dopamine 2L receptors), [3H]methylspiperone; parameters: expressed in transfected cells
# Protocol: [^3H] Methylspiperone was diluted in assay buffer to a final concentration of 0.4 nM. To start the assay, 1 uL of compound was added into 96-well v-bottom plates, followed by the addition of 50 uL of diluted membrane preparation, then finally diluted [^3H] Methylspiperone was added. The assay mixture was incubated for 60 minutes at room temperature with shaking. Following incubation, bound [^3H] methylspiperone on 5% PEI soaked GF/B filter plates using a Filtermate Harvester (Perkin Elmer) were then washed four times with ice cold wash buffer (50 mM Tris-HCl, pH 7.5). Filter plates were air dried for two minutes, and then 50 uL of MicroScint-20 was added into each well. Radioactivity counts were quantified using a Top Count plate reader (Perkin Elmer). Data was analyzed using one-site binding competition non-linear regression curve fitting on GraphPad Prism.
# [12] = Rat PK (intravenous and oral)
# Protocol: as §3, §4
# [13] = incubation of 10 μM metoclopramide, parent and its metabolites M (FIG. 1)
# T4 sequence (P14416 whole entry): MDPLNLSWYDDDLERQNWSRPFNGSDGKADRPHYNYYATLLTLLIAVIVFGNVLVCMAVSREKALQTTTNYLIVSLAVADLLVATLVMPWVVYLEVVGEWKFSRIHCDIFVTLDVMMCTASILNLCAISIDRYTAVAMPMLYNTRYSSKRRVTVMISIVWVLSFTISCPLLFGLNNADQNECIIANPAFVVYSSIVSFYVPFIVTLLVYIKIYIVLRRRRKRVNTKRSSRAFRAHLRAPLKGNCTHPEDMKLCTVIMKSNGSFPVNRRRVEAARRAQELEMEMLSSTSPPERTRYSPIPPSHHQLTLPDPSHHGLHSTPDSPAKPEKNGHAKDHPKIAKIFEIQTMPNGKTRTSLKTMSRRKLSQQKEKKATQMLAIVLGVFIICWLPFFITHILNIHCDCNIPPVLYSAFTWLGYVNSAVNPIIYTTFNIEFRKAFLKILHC
# T3 sequence (P14416 1-414 isoform P14416-2): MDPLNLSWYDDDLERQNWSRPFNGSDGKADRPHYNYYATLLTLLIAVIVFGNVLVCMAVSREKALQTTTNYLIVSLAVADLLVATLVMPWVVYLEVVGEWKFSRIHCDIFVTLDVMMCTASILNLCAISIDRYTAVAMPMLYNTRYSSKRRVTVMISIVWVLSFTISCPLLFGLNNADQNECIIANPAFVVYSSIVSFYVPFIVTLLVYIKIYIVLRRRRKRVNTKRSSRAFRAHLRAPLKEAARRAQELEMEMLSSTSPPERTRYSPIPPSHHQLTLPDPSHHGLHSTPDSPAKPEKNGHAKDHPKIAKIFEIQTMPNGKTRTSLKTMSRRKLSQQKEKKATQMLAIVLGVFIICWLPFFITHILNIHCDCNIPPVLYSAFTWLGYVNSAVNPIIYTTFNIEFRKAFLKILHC
# T1 sequence (Q13639 whole entry): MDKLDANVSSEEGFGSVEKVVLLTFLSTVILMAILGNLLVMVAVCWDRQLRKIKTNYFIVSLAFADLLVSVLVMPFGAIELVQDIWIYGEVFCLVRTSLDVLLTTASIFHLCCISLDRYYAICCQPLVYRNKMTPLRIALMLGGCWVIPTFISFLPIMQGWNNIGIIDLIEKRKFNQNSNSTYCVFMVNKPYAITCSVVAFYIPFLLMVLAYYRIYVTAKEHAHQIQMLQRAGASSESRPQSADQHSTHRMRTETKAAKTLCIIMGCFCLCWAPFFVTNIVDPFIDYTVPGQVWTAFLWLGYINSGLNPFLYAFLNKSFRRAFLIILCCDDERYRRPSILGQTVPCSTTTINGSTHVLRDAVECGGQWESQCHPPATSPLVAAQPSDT
# Chain of CYP2D6 (P10635 whole entry): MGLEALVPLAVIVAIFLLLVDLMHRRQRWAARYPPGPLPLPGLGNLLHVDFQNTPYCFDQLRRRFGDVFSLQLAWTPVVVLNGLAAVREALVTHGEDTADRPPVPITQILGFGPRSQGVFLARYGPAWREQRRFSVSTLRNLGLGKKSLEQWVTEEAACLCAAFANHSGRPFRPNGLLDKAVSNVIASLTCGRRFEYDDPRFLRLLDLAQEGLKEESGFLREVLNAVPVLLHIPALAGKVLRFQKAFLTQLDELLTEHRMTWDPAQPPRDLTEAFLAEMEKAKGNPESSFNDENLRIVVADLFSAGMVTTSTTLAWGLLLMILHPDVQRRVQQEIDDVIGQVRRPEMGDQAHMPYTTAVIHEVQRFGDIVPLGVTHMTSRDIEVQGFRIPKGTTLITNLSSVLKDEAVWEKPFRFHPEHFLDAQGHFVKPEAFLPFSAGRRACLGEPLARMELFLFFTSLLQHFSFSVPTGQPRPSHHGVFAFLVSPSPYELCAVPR
smiles,measurement,setting,value
CN1[C@@H]2CC[C@H]1C[C@@H](OC(=O)c1c[nH]c3ccccc13)C2 [Tropisetron],pKi,[1],8.5-8.8
"CCN(CC)CCNC(=O)c1cc(Cl)c(N)cc1OC [Metoclopramide, N-(2-diethylaminoethyl)-2-methoxy-4-amino-5-chlorobenzamide, reference compound]",IC50,[2]; IC50 [M],6.86e-06 M
same,IC50,[2]; IC50 [nM],6.86e-06 M
same,IC50,[3],82.1 nM and 82.2 nM
same,extent of metabolism in human hepatocytes,[4]; human hepatocytes,minimal
same,"% of Total Metabolism, Human Hep 1 hr",[4]; [13],96.8%
same,"% of Total Metabolism, Human Hep 4 hr",[4]; [13],97.5%
same,"% of Total Metabolism, Rat Hep 1 hr",[5]; [13],87%
same,"% of Total Metabolism, Rat Hep 4 hr",[5]; [13],61%
same,major metabolic pathway,[5]; rat hepatocytes,N-dealkylation
same,chemical stability,[6],chemically stable
same,pKi,[7],5.9-6.4
same,AUC(0-inf),"[8]; iv, 0.5 mg/kg",66.8 ng·h/mL
same,MRT inf,"[8]; iv, 0.5 mg/kg",32.4 min
same,Vd,"[8]; iv, 0.5 mg/kg",4.12 L/kg
same,clearance,"[8]; iv, 0.5 mg/kg",126 mL/min/kg
same,half-life,"[8]; iv, 0.5 mg/kg",30 min
same,AUC,"[8]; po, 2.5 mg/kg",261 ng·h/mL
same,CL/F,"[8]; po, 2.5 mg/kg",131 mL/min/kg
same,Cmax,"[8]; po, 2.5 mg/kg",166 ng/mL
same,Tmax,"[8]; po, 2.5 mg/kg",22.8 min
same,IC50,[9],540 nM
same,time-dependent inhibition of CYP2D6 (literature / known),[10],CYP2D6 time-dependent inhibitor
same,IC50,"[11]; [3H]methylspiperone competition, HEK 293 membranes expressing D2L, read-out: IC50",84.2 nM
same,IC50,"[11]; preliminary run that was not quality controlled, read-out: IC50, preliminary run",932 nM
same,CLRen,"[12]; intravenous, 0.5 mg/kg",7.2* mL/min/kg
same,Clast,"[12]; oral gavage, 2.5 mg/Kg",8.07 ng/mL
same,Tlast,"[12]; oral gavage, 2.5 mg/Kg",16 h

# — US10434181B2, “Oligomer-containing benzamide-based compounds” (Nektar Therapeutics, priority 2012, dated 2019)
